For data set [1] the following is noted: cited from earlier work.
A short description of data set [2]: Pharmacokinetics after single po and iv administration.
The subject of data set [3] is C. difficile strain ATCC 43255. Description: Mouse model of recurrent CDI, survival. To be noted: po once a day for 5 days; oxadiazole 2 20 mg/kg/day, vancomycin 50 mg/kg/day.
Another data set has as its system C. difficile ATCC43255. Description: Inhibition of vegetative cells, spores and toxins in exponential phase cells.
A short description of data set [4]: Toxicity and fecal concentration after multiple oral doses.
Data set [5] has as its system C. difficile strain ATCC 43255. Description: Mouse model of recurrent CDI, second study: fecal cell, spore and toxin evaluation. In kind it is in vivo, mice. Here is the method: C. difficile Mouse Model. […] A negative vehicle control will be included. […] This study was conducted in duplicates.
A second study was conducted with oxadiazole 2 given po at 20 or 40 mg/kg for 5 days and vancomycin administered at 50 mg/kg po for 5 days. Fecal samples were collected on days 3, 7, and 10 for C. difficile spore and toxin evaluation.

In data set [6] the test system is DNA, protein and peptidoglycan synthesis in C. difficile ATCC 43255. The data set can be described thus: Macromolecular synthesis assays. The class given is cell-based. An excerpt: Macromolecular synthesis assays. The method of Mathur et al (J Antimicrob Chemother 2011, 66(5), 1087) was used with a few modifications. [2,8-^3H]-adenine (40 Ci/mmol), 1-[3,4,5-^3H(N)]-leucine (120 Ci/mmol), and N-acetyl-d-[6-^3H]-glucosamine (30 Ci/mmol) were purchased from Perkin Elmer (Waltham, MA). Ciproflaxin, linezolid, and oxacillin, were used as positive controls for DNA, protein, and peptidoglycan, respectively. Ciprofloxacin and oxacillin were purchased from Sigma-Aldrich (St. Louis, MO), linezolid was obtained from AmplaChem Inc. (Carmel, IN). […] Aliquots were taken every 30 min for radioactive counting and viability. Optimal incubation times were 60 min for DNA, 180 min for protein, and 120 min for peptidoglycan.

The conditions of data set [7]: mouse, in vivo, po, 20 mg/kg, 24 h.
Another data set deals with C. difficile. Description: MIC against C. difficile (strain not named; 14 strains overall). The class given is cell-based, Clostridium difficile. Conditions: 14 C. difficile strains.
The test system of the next data set is C. difficile infection. Conditions: cited from earlier work.
[8] abbreviates: summary statement, species not given.
Setting [9] is: 40 mg/kg/day po for 5 days, uninfected mice.
Setting [10] is: female, C57B1/6, mouse, feces, po, 40 mg/kg/day.

Where two headings read alike, the source gives them in different places.

What is called AUC(0-inf) is the area under the concentration-time curve extrapolated to infinity. The term half-life denotes the time needed for the level to fall by half in the phase considered. A lower half-life goes with fast loss. What is called bioavailability is dose-corrected exposure relative to a reference, in per cent. By Cmax is commonly meant the peak of the concentration-time curve.

On to `FC(F)(F)c1ccc(Oc2ccc(-c3noc(-c4ccc5[nH]ccc5c4)n3)cc2)cc1` [Compound 1], for which the clearance result in [1] (in words) is recorded as “low clearance”. Also, in data set [1] (setting [8]), the Oral bioavailability is on record as 97% and the Terminal half-life was 18.6 h.
As for `Oc1ccc(-c2nc(-c3ccc(OC4CCCC4)cc3)no2)cc1` [Compound 2], the “Clearance as share of hepatic blood flow” value in data set [2] (mice, 20 mg/kg iv) is “approximately 20%”. The “Absolute oral bioavailability F” value in data set [2] (mice, 20 mg/kg po vs iv, 20 mg/kg) amounted to 4%. This molecule displayed a concentration at 24 h in [2] (mouse, feces, po, 20 mg/kg) of 43000 ± 3000 ng/g. Besides, in data set [2] (mouse, plasma, iv, 20 mg/kg), the AUC(0-inf) is 19200 ng·h/mL, the Vd came out at 1.8 L/kg, the clearance amounted to 17.4 mL/min/kg and the half-life is 1.2 h. The bioavailability in data set [2] (mouse, plasma, oral, 20 mg/kg, Absolute oral bioavailability F, mice, 20 mg/kg po vs iv) stood at 3.8%. In data set [2] (mouse, plasma, po, 20 mg/kg), the AUC(0-inf) is 733 ng·h/mL, the concentration peaked (Cmax) at 300 ng/mL and the half-life was 1.1 h. For the same molecule, in data set [3], the “Survival after 25 days” value turned out to be 70%. Moreover, the “Concentration that inhibited growth of vegetative cells” value with C. difficile ATCC43255 (24 hours) was determined as 1 ×MIC. Besides, the “Concentration that inhibited toxin production” value in the data set on C. difficile ATCC43255 (24 hours, TcdA and TcdB by ELISA) was 1 ×MIC. Moreover, in the data set with C. difficile ATCC43255 (48 hours), the “Concentration that inhibited spore production” value is recorded as “¼” and the “Concentration that inhibited toxin production” value is 1 ×MIC. Also, in the data set on C. difficile ATCC43255 (72 hours), the “Concentration that inhibited spores” value came to 1 ×MIC, the “Concentration that inhibited toxin production” value turned out to be 1 ×MIC and the “Concentration that inhibited vegetative cells” value stood at 1 ×MIC. In data set [4] (setting [9]), the Tolerability entry is “well tolerated” and the Weight loss entry is “did not result in weight loss”. In [4] (Day 1, 40 mg/kg/day po for 5 days, uninfected mice), this molecule came in with a Body weight of 19.6 ± 0.6 g. Besides, the Body weight in data set [4] (Day 2, 40 mg/kg/day po for 5 days, uninfected mice) came to 19.8 ± 0.6 g. In data set [4] (Day 3, 40 mg/kg/day po for 5 days, uninfected mice), this molecule returned a Body weight of 19.8 ± 1.0 g. For the same molecule, the Body weight in data set [4] (Day 4, 40 mg/kg/day po for 5 days, uninfected mice) came to 19.7 ± 1.0 g. In [4] (Day 5, 40 mg/kg/day po for 5 days, uninfected mice), this molecule showed a Body weight of 19.4 ± 0.6 g. Moreover, the “Oxadiazole 2 in Feces” value in data set [4] (Day 5, 40 mg/kg/day po for 5 days, uninfected mice, 40 mg/kg/day) was found to be 30.8 ± 11.1 μg/g feces. In data set [4] (female, C57B1/6, mouse, feces, oral, 40 mg/kg), this molecule returned a concentration at 5 day of 30800 ng/mL. In data set [4] (setting [10]), this molecule showed a concentration at 1 day of 9800 ± 400 ng/g, a concentration at 2 day of 15000 ± 3700 ng/g, a concentration at 3 day of 18100 ± 2400 ng/g and a concentration at 4 day of 16900 ± 1800 ng/g. The same molecule had a concentration at 5 day in [4] (setting [10]) of 30800 ± 11100 ng/g. Besides, the “Decrease in spores in feces” value in data set [5] (20 mg/kg group) stood at 3 log. The “Total cell counts in feces, lower on day 10 compared to day 3” value in data set [5] (20 mg/kg/day for 5 days) was found to be 3.44 log. Moreover, the Spores in feces result in data set [5] (40 mg/kg group, days 3, 7 and 10, in words) is reported as “no spores were observed at any time”. In data set [5] (40 mg/kg group, in words), the “Toxin production in feces” value is listed as “no toxin production was detected”. Besides, the “Total cell counts in feces, lower on day 10 compared to day 3” value in data set [5] (40 mg/kg/day for 5 days) is 4.68 log. Also, in [5] (b100, 20 mg/kg), the “Reduction in spores in feces” value came out at 1.85 log. In [5] (dose of compound 2 not stated), the “Reduction in vegetative cells in feces by day 10” value was “about 3 log”. The “Inhibition of peptidoglycan synthesis” value in [6] (N-acetyl-d-[6-3H]-glucosamine incorporation, ½ MIC, 120 min) came to 54.8±3.7%. In [6] ([2,8-3H]adenine incorporation, in words), the “Inhibition of DNA synthesis” value was “not significant”. Besides, in [6] (l-[3,4,5-3H(N)]-leucine incorporation, in words), the “Inhibition of protein synthesis” value is “not significant”. Besides, the “Level in feces as multiple of MIC” value in data set [7] is reported as “approximately 20 ×MIC”.
Turning to `CCc1c(Cl)c(O)c(Cl)c(O)c1C(=O)O[C@H]1[C@H](O)[C@H](OC)[C@H](OC/C2=C\C=C\C[C@H](O)/C(C)=C/[C@H](CC)[C@@H](O[C@@H]3OC(C)(C)[C@@H](OC(=O)C(C)C)[C@H](O)[C@@H]3O)/C(C)=C/C(C)=C/C[C@@H]([C@@H](C)O)OC2=O)O[C@@H]1C` [fidaxomicin], the “MIC range in 14 C. difficile strains” value against C. difficile is less than 0.01 to 0.25 µg/mL. Further, the Treatment failure in the data set on C. difficile infection (CDI) was 12%. Moreover, the “Patients with recurrence of the infection” value with C. difficile infection (patients treated for CDI) is listed as “About 25%”.

(Values after patent publication US12054466B2, “Compounds for the treatment of clostridium difficile infection” (University of Notre Dame du Lac, priority 2016, dated 2024).)
